For assay [1], the target named is T1, TLR4 (Mus musculus, UniProt Q9JHF9+Q9QUK6).
T1 sequence (Q9QUK6 26-835): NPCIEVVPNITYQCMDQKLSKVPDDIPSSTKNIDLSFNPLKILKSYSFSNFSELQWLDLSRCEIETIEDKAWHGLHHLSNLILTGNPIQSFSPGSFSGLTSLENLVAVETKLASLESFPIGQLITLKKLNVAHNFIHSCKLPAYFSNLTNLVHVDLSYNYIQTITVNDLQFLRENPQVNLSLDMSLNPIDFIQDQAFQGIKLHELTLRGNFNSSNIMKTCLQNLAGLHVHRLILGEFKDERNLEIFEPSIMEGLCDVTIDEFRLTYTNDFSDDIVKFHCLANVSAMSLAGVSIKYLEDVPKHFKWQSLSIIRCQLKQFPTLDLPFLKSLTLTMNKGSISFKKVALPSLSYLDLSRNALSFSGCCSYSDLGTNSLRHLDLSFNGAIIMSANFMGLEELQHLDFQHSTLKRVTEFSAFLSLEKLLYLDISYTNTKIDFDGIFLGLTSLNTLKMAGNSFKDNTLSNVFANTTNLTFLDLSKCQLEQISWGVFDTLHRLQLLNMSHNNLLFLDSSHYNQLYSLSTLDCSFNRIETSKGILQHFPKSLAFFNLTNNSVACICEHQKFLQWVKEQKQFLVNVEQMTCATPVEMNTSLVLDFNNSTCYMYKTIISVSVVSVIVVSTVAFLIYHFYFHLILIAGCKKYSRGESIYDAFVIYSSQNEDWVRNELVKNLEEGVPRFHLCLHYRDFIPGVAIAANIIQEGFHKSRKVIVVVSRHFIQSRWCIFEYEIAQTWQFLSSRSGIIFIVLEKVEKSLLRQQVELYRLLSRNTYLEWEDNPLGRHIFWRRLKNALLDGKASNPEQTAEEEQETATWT
T1 sequence (Q9JHF9 19-160): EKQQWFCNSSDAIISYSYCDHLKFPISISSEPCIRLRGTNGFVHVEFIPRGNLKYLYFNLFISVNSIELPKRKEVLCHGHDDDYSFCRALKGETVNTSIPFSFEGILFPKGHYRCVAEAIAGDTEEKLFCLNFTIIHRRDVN
Description: TNF-α secretion by dendritic cells (APC) cocultured with PAEC, ELISA. In kind it is cell-based. The note with it: cocultures of PAEC and murine APCs, TLR4-positive or -negative. As for the experimental part:
Cell Isolation and Culture. Dendritic cells were generated from murine bone marrow cultures as previously described (Kodaira et al. (2000) J. Immunol. 165:1599). At day 6 or 7 of culture, nonadherent cells and loosely adherent proliferating dendritic cell aggregates were harvested for analysis or stimulation. PAEC were cultured to confluence and their identity was confirmed as previously described (Ryan and Maxwell (1986) J. Tissue Cult. Methods 10:3).
Cell Culture Stimulation. Dendritic cells (2×10^6 per ml) cocultured with confluent monolayers of PAEC in 96-well plates were stimulated with 10 μg/ml chondroitin sulfate, 500 ng/ml CpG DNA, 10 ng/ml LPS, 10 μg/ml HS, 50 μg/ml zymosan, or PBS, unless otherwise indicated. To control for purity, agonists were pretreated with END-X B15, or mixed with Limulus anti-LPS factor before stimulation of cells, as indicated. In some experiments, agonists were boiled before use for 60 minutes at 100° C.
Cytokine Quantification. Age-matched female mice were injected in the peritoneum with 0.5 U of elastase, 5 mg of HS, 200 U of heparin, 150 μg of CpG DNA, or PBS with a total volume of 250 μl. One hour and 3 hours after injection, 100-μl blood samples were collected from the tail vein. […] Concentrations of TNF-α were analyzed by enzyme-linked sandwich ELISA (R&D Systems, Minneapolis, Minn.). […]
(In general: In an ELISA, binding on a coated surface is turned into a signal by an enzyme label.)

Assay [2] deals with TLR4. The experiment in a line: Serum TNF-α after i.p. injection in mice, ELISA. It counts as in vivo. As for the experimental part: Cytokine Quantification. Age-matched female mice were injected in the peritoneum with 0.5 U of elastase, 5 mg of HS, 200 U of heparin, 150 μg of CpG DNA, or PBS with a total volume of 250 μl. One hour and 3 hours after injection, 100-μl blood samples were collected from the tail vein. Cell supernatants and serum samples were immediately frozen at −20° C. until analysis. Concentrations of TNF-α were analyzed by enzyme-linked sandwich ELISA (R&D Systems, Minneapolis, Minn.).

A short description of assay [3]: Loss of HS from spleen tissue after intrasplenic injection (immunopathology). It counts as in vivo, mice. The note with it: within 5 hours of injection. As for the experimental part:
Immunopathology. After intraperitoneal (i.p.) injection of ketamine and xylazine, murine spleens were directly visualized through an incision in the lateral abdominal wall and injected with 100 μl of PBS containing 0.1 U of elastase or PBS alone. Five hours later, the spleen was harvested and pieces snap-frozen. Tissue sections were prepared and stained as previously described (Dempsey et al. supra) with the several modifications. In particular, secondary and tertiary antibodies were mouse serum (Jackson ImmunoResearch Laboratories, West Grove, Pa.) preabsorbed and diluted in M.O.M. diluent (Vector Laboratories, Burlingame, Calif.). Fluorescent images were converted to grayscale using SPOT software (Diagnostic Instruments, Sterling Heights, Mich.).
To determine whether elastase liberates HS in vivo, spleen tissues were harvested from mice that had been injected intrasplenically with the enzyme, and the tissues were tested for the presence of HS. […] Thus, pancreatic elastase can induce loss of HS proteoglycan from tissues in vivo.

Setting [4] is: TLR4-mutant mice, up to 3 hours.
Setting [5] is: wild-type mice, 1 hour after treatment.

For the substance “elastase: pancreatic elastase (Calbiochem; type IV porcine pancreatic elastase, Sigma-Aldrich), protease that cleaves ECM proteins”, in the assay with TLR4 [1], the “TNF-α secretion by APC” value is “secreted TNF-α in a TLR4-dependent manner”. Also, the “Serum TNF-α” value in the assay on TLR4 [2] (setting [4]) is “not detectable”; with TLR4 [2] (setting [5]) it was “high serum levels of TNF-α”. For the same substance, in assay [3], the “Loss of HS from blood vessels of spleen” value is recorded as “lost HS from blood vessels at the injection site”.
As to heparan sulfate [HS], at TLR4 [1], the “TNF-α secretion by APC” value is “secreted TNF-α in a TLR4-dependent manner”. Besides, the entries for the “Serum TNF-α” value in the assay on TLR4 [2] (setting [4]) and in the assay on TLR4 [2] (setting [5]) were “not detectable” and “high serum levels of TNF-α”, respectively.

The values above are taken from patent US20100158808A1, “Altered Activity of Toll-Like Receptors” (priority 2003, published 2010).
